How the values were obtained:
COX-2 = target: T1, COX-2 (Homo sapiens, UniProt P35354); test: COX-2 inhibition in human whole blood (LPS-induced PGE2 production); assay type: cell-based; details: PGE2 after LPS 10 μg/mL overnight, average where more than one assay, read-out: COX-2_Blood IC50 [μM] (Avg)
T1 construct: COX-2 expression is induced in mononuclear cells by treatment with lipopolysaccharide (LPS); endogenous in cells; host or cells: heparinized human whole blood (mononuclear cells, LPS-induced)
T1 sequence (P35354 18-604): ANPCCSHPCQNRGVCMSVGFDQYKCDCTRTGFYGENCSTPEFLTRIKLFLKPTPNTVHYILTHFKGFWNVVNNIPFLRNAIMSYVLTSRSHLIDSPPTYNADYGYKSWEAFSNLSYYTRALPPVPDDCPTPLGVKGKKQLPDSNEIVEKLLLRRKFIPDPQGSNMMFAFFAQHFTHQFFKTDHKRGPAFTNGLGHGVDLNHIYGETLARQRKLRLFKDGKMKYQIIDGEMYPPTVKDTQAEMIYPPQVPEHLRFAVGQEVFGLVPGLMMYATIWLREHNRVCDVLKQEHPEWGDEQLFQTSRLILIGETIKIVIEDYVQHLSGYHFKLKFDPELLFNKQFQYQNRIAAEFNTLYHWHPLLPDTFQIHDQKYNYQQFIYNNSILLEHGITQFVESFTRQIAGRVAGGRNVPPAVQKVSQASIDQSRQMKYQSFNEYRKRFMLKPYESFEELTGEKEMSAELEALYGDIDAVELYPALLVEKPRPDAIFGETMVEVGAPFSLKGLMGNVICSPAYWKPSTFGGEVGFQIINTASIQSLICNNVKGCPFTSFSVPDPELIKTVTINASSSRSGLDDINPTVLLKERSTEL
Description: (§1) In vitro COX-1 and COX-2 inhibition is also determined in human whole blood where COX-1 is constitutively expressed in platelets and COX-2 expression is induced in mononuclear cells by treatment with lipopolysaccharide (LPS) (10 μg/mL). For this assay heparinized human blood is divided into two aliquots: one for measuring TxB2 production (a surrogate indicator of COX-1 activity) and a second for measuring PGE2 production (a surrogate for COX-2 activity). The blood samples are pretreated with test compounds for one hour before stimulation. Compounds are tested in a final concentration range from 0.1 nM to 300 μM using half log increases in concentrations. To measure inhibition of thromboxane B2 (TxB2) generation, A23187 (50 μM) is added, and the blood incubated for one hour. PGE2 production is measured after the addition of LPS (10 μg/mL) followed by overnight incubation. After incubation with A23187 or LPS the samples are centrifuged at 250×g for 10 minutes at 4° C. to collect serum. The amounts PGE2 and TxB2 present in the serum are measured using a chemiluminesence enzyme immunoassay from Assay Designs Inc. (Ann Arbor, Mich.). The levels of prostaglandin in each sample are normalized to the percent inhibition caused by each concentration of the test compound. The percent inhibition data for each donor is pooled and fitted to a 4-parameter logistic function using a regression.

COX-1 = target: T2, COX-1 (Homo sapiens, UniProt P23219); test: COX-1 inhibition in human whole blood (A23187-stimulated TxB2 production); assay type: cell-based; details: TxB2 after A23187 50 μM 1 h, average where more than one assay, read-out: COX-1_Blood IC50 [μM] (Avg)
T2 construct: COX-1 is constitutively expressed in platelets; endogenous in cells; host or cells: heparinized human whole blood (platelets, A23187-stimulated)
T2 sequence (P23219 24-599): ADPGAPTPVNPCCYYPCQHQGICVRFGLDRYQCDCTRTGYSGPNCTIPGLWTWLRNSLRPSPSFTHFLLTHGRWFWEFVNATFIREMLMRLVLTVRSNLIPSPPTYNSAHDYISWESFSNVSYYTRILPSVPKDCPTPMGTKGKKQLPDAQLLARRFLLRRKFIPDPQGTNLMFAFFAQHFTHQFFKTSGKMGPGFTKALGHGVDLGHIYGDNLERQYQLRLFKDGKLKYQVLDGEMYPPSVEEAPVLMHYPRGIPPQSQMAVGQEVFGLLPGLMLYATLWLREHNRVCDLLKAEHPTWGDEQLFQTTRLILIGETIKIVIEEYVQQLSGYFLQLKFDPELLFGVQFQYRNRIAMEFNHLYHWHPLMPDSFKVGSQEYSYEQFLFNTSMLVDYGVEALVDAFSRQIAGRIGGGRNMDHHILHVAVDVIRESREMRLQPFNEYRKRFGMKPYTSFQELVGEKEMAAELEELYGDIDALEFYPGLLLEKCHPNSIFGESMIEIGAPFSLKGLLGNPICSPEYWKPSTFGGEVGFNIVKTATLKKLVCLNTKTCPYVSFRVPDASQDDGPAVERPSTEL
Description: as §1

Q: For `CCc1c(Cl)ccc(Nc2ccc(C)cc2CC(=O)O)c1F` [Example 5k, 5-Methyl-2-(2′-fluoro-4′-chloro-3′-ethylanilino)phenylacetic acid], which IC50 (COX-2) is on record?
A: Its IC50 is 0.165 µM.

Q: What about the IC50 (COX-1) of the same compound?
A: The IC50 was 183 µM.

Q: Which results are given for `CCc1ccc(Nc2ccc(C)c(C(F)(F)F)c2F)c(CC(=O)O)c1` [Example 5a, 5-Ethyl-2-(2′-fluoro-4′-methyl-3′-trifluoromethylanilino)phenylacetic acid]?
A: IC50 (COX-2): 0.1 µM; IC50 (COX-1): 155 µM

Q: What does the source list for `Cc1ccc(Nc2ccc(Cl)c(C)c2F)c(CC(=O)O)c1` [Example 5i, 5-Methyl-2-(2′-fluoro-4′-chloro-3′-methylanilino)phenylacetic acid]?
A: IC50 (COX-2): 0.295 µM; IC50 (COX-1): 129 µM

Q: How did the IC50 (COX-2) turn out when `CCc1ccc(Nc2ccc(Cl)c(C(C)C)c2F)c(CC(=O)O)c1` [Example 5m, 5-Ethyl-2-(2′-fluoro-4′-chloro-3′-isopropylanilino)phenylacetic acid] was run?
A: The IC50 was 0.17 µM.

Q: What about the IC50 (COX-1) of the same compound?
A: Its IC50 is 127 µM.

Q: What does the source list for `Cc1ccc(Nc2ccc(Cl)c(C)c2Cl)c(CC(=O)O)c1` [Example 5e, 5-Methyl-2-(2′,4′-dichloro-3′-methylanilino)phenylacetic acid]?
A: IC50 (COX-2): 0.073 µM; IC50 (COX-1): 126 µM

— patent US8586782B2, “Phenylacetic acid derivatives” (Novartis AG, priority 2006, dated 2013)
